Results on eight compounds are retold here after paper PMC12676778, “Long-tailed class I myosins rely on tail-mediated phosphoinositide recognition for specific membrane recruitment” (Cell Communication and Signaling : CCS, 2025).

The subject of one experiment is Dictyostelium cells. Put plainly: Myosin-1 localization in LY294002-treated (PI(3,4,5)P3-depleted) cells during endocytosis, confocal imaging. The experiment is classed as cell-based, Dictyostelium discoideum. As to conditions: 20 µM, starving cells. On the procedure: Microtubule depolymerization rates were quantified by measuring individual microtubule length reduction over time using Andor Solis software. Cellular localization of fluorescently tagged myosins and time-lapse imaging were performed on an inverted Leica TCS SP2 AOBS confocal microscope and a Leica DMi8 M system equipped with a 63×/1.4 NA oil immersion objective. Bright-field fluorescence microscopy employed an Olympus IX81 inverted microscope with a 60×/1.49 NA oil immersion lens (ApoN, Olympus). For imaging, cells were seeded on glass-bottom dishes (Ibidi), washed twice with MES buffer (20 mM MES, pH 6.8, 0.2 mM CaCl₂, 2 mM MgCl₂), and maintained in this buffer during acquisition. Phagocytic uptake assays were performed following a 2-hour starvation, after which heat-killed yeast particles were added and time-lapse images recorded. […] Image processing was performed using Leica Confocal Software, and quantitative analysis was conducted with ImageJ (NIH, Bethesda, MD, USA). Fluorescence intensity profiles were obtained by drawing lines along the regions of the cups, as illustrated in Fig. 5. Fluorescence data were normalized to the maximum intensity and interpolated using the interpolation algorithm in Origin to account for variations in cup length. Frames showing association of myosin-1C or myosin-1D with the cups were quantified. […]

For another experiment, the target named is T1, Myosin-1C-tail (Dictyostelium discoideum, UniProt P42522).
T1 construct: gene myoC; GST and/or YFP tags kept; E. coli Rosetta pLysS
T1 sequence (P42522 699-1182 limits assumed): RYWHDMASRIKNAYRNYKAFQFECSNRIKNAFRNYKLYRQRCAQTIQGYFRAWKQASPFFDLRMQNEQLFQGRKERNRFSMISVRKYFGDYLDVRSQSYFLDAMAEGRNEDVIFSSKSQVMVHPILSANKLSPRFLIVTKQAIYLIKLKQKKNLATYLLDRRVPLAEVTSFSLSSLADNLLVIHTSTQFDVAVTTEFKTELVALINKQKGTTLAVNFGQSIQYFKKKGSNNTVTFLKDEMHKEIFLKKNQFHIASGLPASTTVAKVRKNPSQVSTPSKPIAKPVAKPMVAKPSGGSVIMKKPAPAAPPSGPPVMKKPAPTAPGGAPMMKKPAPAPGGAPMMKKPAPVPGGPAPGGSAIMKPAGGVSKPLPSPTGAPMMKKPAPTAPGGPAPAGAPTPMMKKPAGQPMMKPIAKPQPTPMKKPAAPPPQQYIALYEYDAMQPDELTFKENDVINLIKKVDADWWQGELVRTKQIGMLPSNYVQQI
The experiment in a line: liposome co-sedimentation, YFP fluorescence of supernatant. To be noted: PolyPIPosomes (5% PIP, 95% PE + PC), accessible lipid; 10 mM Tris pH 7.5, 100 mM NaCl, 1 mM EGTA, room temperature. The format is binding. The source says:
liposome co-sedimentation, YFP fluorescence of supernatant on Myosin-1C-tail

For a further experiment, the target named is T2, Myosin-1D-tail (Dictyostelium discoideum, UniProt P34109).
T2 construct: gene myoD; tail fragment (TH1, SH3, TH2), residues 717-1113; N-terminal GST and/or C-terminal YFP tags kept; E. coli Rosetta pLysS
T2 sequence (P34109 717-1109): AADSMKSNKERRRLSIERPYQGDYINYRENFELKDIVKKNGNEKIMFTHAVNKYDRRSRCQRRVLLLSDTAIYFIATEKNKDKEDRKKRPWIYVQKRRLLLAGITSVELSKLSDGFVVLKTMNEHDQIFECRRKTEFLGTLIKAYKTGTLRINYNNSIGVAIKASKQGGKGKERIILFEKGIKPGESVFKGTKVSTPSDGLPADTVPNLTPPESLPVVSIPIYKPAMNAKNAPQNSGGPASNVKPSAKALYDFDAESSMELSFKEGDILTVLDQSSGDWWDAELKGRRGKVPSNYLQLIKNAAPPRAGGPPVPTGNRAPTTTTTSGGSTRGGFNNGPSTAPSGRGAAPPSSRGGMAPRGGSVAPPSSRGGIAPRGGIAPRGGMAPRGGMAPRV
Described as above. The format is binding. To be noted: PolyPIPosomes (5% PIP, 95% PE + PC), accessible lipid; 10 mM Tris pH 7.5, 100 mM NaCl, 1 mM EGTA, room temperature. The source says:
liposome co-sedimentation, YFP fluorescence of supernatant on Myosin-1D-tail

The next experiment has as its target T3, Myosin-1B-tail (Dictyostelium discoideum, UniProt P34092).
T3 construct: gene myoB; tail fragment (TH1, TH2, SH3), residues 717-1111; N-terminal GST and/or C-terminal YFP tags kept; E. coli Rosetta pLysS
T3 sequence (P34092 717-1111): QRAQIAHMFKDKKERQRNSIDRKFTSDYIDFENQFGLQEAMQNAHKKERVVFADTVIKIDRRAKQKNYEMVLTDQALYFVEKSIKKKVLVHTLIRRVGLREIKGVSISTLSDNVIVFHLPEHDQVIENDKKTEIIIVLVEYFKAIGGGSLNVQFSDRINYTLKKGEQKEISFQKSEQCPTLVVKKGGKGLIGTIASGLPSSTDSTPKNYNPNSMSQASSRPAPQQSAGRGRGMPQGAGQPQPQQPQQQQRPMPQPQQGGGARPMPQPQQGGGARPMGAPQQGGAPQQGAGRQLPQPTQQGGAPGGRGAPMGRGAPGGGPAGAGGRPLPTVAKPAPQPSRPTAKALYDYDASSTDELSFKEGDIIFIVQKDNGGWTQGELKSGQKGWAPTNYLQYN
The experiment is described as above. As to conditions: PolyPIPosomes (5% PIP, 95% PE + PC), accessible lipid; 10 mM Tris pH 7.5, 100 mM NaCl, 1 mM EGTA, room temperature. The format is binding. The source says: liposome co-sedimentation, YFP fluorescence of supernatant on Myosin-1B-tail

Take `O=c1cc(N2CCOCC2)oc2c(-c3ccccc3)cccc12` [LY294002]: in the experiment on Dictyostelium cells, the “cortical actin dynamics and association of actin with the early endosome” value was “did not disrupt”; the “localization of myosin-1C and myosin-1D with endocytic cups and endosomal membranes” value is listed as “almost fully abolished”.

Take PI(3)P: the Kd was determined as 4 ± 0.3 µM at Myosin-1C-tail and 1.7 ± 0.3 µM at Myosin-1D-tail.

In the case of PI(3,4)P2, the Kd at Myosin-1B-tail was found to be 2.2 ± 0.4 µM.

Regarding PI(3,4,5)P3, the dissociation constant Kd at Myosin-1C-tail amounted to 2.5 ± 0.3 µM; at Myosin-1D-tail, 0.3 ± 0.04 µM.

Turning to PI(3,5)P2, the figures for the Kd on Myosin-1C-tail and on Myosin-1D-tail were 0.6 ± 0.1 µM and 0.8 ± 0.1 µM, respectively.

Consider PI(4)P, for which the Kd at Myosin-1C-tail was 0.4 ± 0.1 µM; on Myosin-1D-tail, 1.2 ± 0.2 µM.

PI(4,5)P2: the Kd on Myosin-1D-tail turned out to be 0.7 ± 0.1 µM.

On to PI(5)P, for which the results for the Kd at Myosin-1C-tail and at Myosin-1B-tail were 0.5 ± 0.1 µM and 7.7 ± 0.6 µM, respectively.
